Assay results as given in patent US11286268B1, “EIF4E-inhibiting compounds and methods” (EFFECTOR THERAPEUTICS, INC., priority 2019, dated 2022).
Where two headings read alike, the source gives them in different places.

Target: recombinant eIF4E (Homo sapiens (Human), UniProt P06730)
Assay: Fluorescence polarization competition assay for eIF4E binding potency
Procedure, shortened: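 FP readout; IC50 fit from 8-point, 3-fold series. 75 nM eIF4E + 20 nM ATTO-550-labelled m7GDP probe, Tris pH 7.5/NaCl/DTT/Tween buffer, 1% DMSO final. 30 min RT equilibration, light-protected.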

[1] = fluorescence polarization competition, 75 nM recombinant eIF4E, 20 nM EDA-m7GDP-ATTO-550, IC50 class, read-out: elF4E FP
[2] = inhibition of eIF4E/EDA-m7GDP-ATTO-550 binding by 50%, Table 4B calculated values, read-out: IC50

Sequence of recombinant eIF4E (P06730 whole entry): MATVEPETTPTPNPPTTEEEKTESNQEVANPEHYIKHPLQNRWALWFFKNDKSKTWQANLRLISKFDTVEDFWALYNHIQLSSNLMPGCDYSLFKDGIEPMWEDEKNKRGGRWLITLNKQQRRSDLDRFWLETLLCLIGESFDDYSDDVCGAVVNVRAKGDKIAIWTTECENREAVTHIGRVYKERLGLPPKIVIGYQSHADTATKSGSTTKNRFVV

| SMILES | IC50 [1] [nM] | IC50 [2] [nM] |
| --- | --- | --- |
| Cc1nc2cnc(N(C)C3CCN([C@H]4C[C@H](OC(F)F)C4)CC3)c(C#N)c2c(=O)n1CC#Cc1ccc(Cl)cc1-c1ccnc2c(C(=O)O)csc12 [compound 1135] | < 50 | 34.3 |
| Cc1nc2cnc(N3CCC4(CC3)CN(CC(F)F)C4)c(C#N)c2c(=O)n1CC#Cc1ccc(Cl)cc1-c1ccnc2c(C(=O)O)csc12 [compound 1136] | < 50 | 17 |
| Cc1nc2cnc(N3CCC4(CC3)CN(CC(C)(F)F)C4)c(C#N)c2c(=O)n1CC#Cc1ccc(Cl)cc1-c1ccnc2c(C(=O)O)csc12 [compound 1137] | < 50 | 17.4 |
| Cc1cc(-c2cc(Cl)ccc2OCCn2c(C)nc3ccc(CCN(C)C)c(C#N)c3c2=O)c2scc(C(=O)NS(C)(=O)=O)c2n1 [compound 1138] | < 50 | 23.7 |
| Cc1nc2cnc(N(C)C3CCN(CC(F)(F)F)CC3)c(C#N)c2c(=O)n1CC#Cc1ccc(Cl)cc1-c1ccnc2c(C(=O)O)csc12 [compound 1140] | < 50 | 6.14 |
| Cc1nc2cnc(N(C)C3CCN(CC(C)(C)F)CC3)c(C#N)c2c(=O)n1CC#Cc1ccc(Cl)cc1-c1ccnc2c(C(=O)O)csc12 [compound 1142] | < 50 | 13 |
| Cc1nc2cnc(N(C)C3CCN(CC(C)(F)F)CC3)c(C#N)c2c(=O)n1CC#Cc1ccc(Cl)cc1-c1ccnc2c(C(=O)NS(=O)(=O)c3ccncc3)csc12 [compound 1143] | < 50 | 24.6 |
| Cc1nc2cnc(N(C)C3CCN(CC(C)(F)F)CC3)c(C#N)c2c(=O)n1CC#Cc1ccc(Cl)cc1-c1ccnc2c(C(=O)NS(=O)(=O)c3cccnc3)csc12 [compound 1144] | < 50 | 34.4 |
| Cc1cc(-c2cc(Cl)ccc2OCCn2c(C)nc3cnc(N4CCN(C)CC4)c(C#N)c3c2=O)c2scc(C(=O)O)c2n1 [compound 1145] | < 50 | 33.1 |
| Cc1nc2cnc(N(C)C3CCN(CC(C)(F)F)CC3)c(C#N)c2c(=O)n1CC#Cc1ccc(Cl)cc1-c1ccnc2c(C(=O)NS(=O)(=O)c3ccccn3)csc12 [compound 1146] | < 50 | 14.4 |
| Cc1nc2cccc(C#N)c2c(=O)n1CCOc1ccc(Cl)cc1-c1cccc(C(=O)O)c1 [compound 1147] | < 50 | 44.6 |
| Cc1nc(-c2ccccc2C(F)(F)F)c(C#N)c2c(=O)n(CCOc3ccc(Cl)cc3-c3ccnc4c(C(=O)O)csc34)c(C)nc12 [compound 1148] | < 50 | 35.6 |
| Cc1cc(-c2cc(Cl)ccc2OCCn2c(C)nc3c(C)nc(N4CCC(O)C4)c(C#N)c3c2=O)c2scc(C(=O)O)c2n1 (stereo not drawn) [compound 1149] | < 50 | 4.19 |
| Cc1cc(-c2cc(Cl)ccc2OCCn2c(C)nc3cc(S(C)(=O)=O)c(N4CCN(C)CC4)c(C#N)c3c2=O)c2sc(C)c(C(=O)O)c2n1 [compound 1150] | < 50 | 4.6 |
| Cc1nc2cc(C(F)(F)F)c(N3CCN(C)CC3)c(C#N)c2c(=O)n1CCOc1ccc(Cl)cc1-c1ccnc2c(C(=O)NS(C)(=O)=O)csc12 [compound 1151] | < 50 | 19 |
| CO[C@H]1C[C@@H](c2ncc3nc(C)n(CCOc4ccc(Cl)cc4-c4cc(C)nc5c(C(=O)O)csc45)c(=O)c3c2C#N)C1 [compound 1152] | < 50 | 3.8 |
| Cc1nc2cc(C(F)(F)F)c(OCC(F)(F)F)c(C#N)c2c(=O)n1CCOc1ccc(Cl)cc1-c1ccnc2c(C(=O)O)csc12 [compound 1153] | < 50 | 38 |
| Cc1nc2cc(C(F)(F)F)c(N3CCN(C)CC3)c(C#N)c2c(=O)n1CC#Cc1ccc(Cl)cc1-c1cccc(C(=O)O)c1 [compound 1154] | < 50 | 14 |
| Cc1nc2cc(C(F)(F)F)c(N3CCN(C)CC3)nc2c(=O)n1CCOc1ccc(Cl)cc1-c1ccnc2c(C(=O)NS(C)(=O)=O)csc12 [compound 1155] | < 50 | 18.1 |
| Cc1nc2cc(C(F)(F)F)c(N3CCN(CCC(F)(F)F)CC3)c(C#N)c2c(=O)n1CCCc1ccc(Cl)cc1-c1ccnc2c(C(=O)O)csc12 [compound 1156] | < 50 | 35.1 |
| Cc1nc2cnc(N(C)C3CCN(CC(F)(F)F)CC3)c(C#N)c2c(=O)n1CCOc1ccc(Cl)cc1-c1ccnc2c(C(=O)NS(C)(=O)=O)csc12 [compound 1157] | < 50 | 22 |
| Cc1nc2cc(C(F)(F)F)c(N3CC4(C3)CN(C3CC3)C4)c(C#N)c2c(=O)n1CCCc1ccc(Cl)cc1-c1ccnc2c(C(=O)O)csc12 [compound 1158] | < 50 | 15.8 |
| Cc1nc2cnc(N3CCN(CCC(F)(F)F)CC3)c(C#N)c2c(=O)n1CC#Cc1ccc(Cl)cc1-c1ccnc2c(C(=O)O)csc12 [compound 1160] | < 50 | 17.2 |
| Cc1nc2cnc(N(C)C3CCN([C@@H]4C[C@H]4C(F)(F)F)CC3)c(C#N)c2c(=O)n1CC#Cc1ccc(Cl)cc1-c1ccnc2c(C(=O)O)csc12 [compound 1175] | < 50 | 22.1 |
| Cc1nc2cc(C(F)(F)F)c(N3CCN(C4CC4)CC3)c(C#N)c2c(=O)n1CCOc1ccc(Cl)cc1-c1ccnc2c(C(=O)NS(C)(=O)=O)csc12 [compound 1179] | < 50 | 14.7 |

The next lines start with the values.

| IC50 [1] [nM] | IC50 [2] [nM] | SMILES |
| --- | --- | --- |
| < 50 | 19.5 | Cc1nc2cnc(N3CCN(CCOC(F)(F)F)CC3)c(C#N)c2c(=O)n1CC#Cc1ccc(Cl)cc1-c1ccnc2c(C(=O)O)csc12 [compound 1161] |
| < 50 | 21.6 | Cc1nc2cnc(N3CCN(C4CC4)CC3)c(C#N)c2c(=O)n1CC#Cc1ccc(Cl)cc1-c1ccnc2c(C(=O)O)csc12 [compound 1162] |
| < 50 | 24.8 | Cc1nc2cnc(N3CCN(C4CC(F)(F)C4)CC3)c(C#N)c2c(=O)n1CC#Cc1ccc(Cl)cc1-c1ccnc2c(C(=O)O)csc12 [compound 1163] |
| < 50 | 26.7 | Cc1nc2cnc(N3CCN(CC(C)(F)CF)CC3)c(C#N)c2c(=O)n1CCOc1ccc(Cl)cc1-c1ccnc2c(C(=O)O)csc12 (stereo not drawn) [compound 1164] |
| < 50 | 22.3 | Cc1nc2cnc(N(C)C3CCN(C4CC(F)(F)C4)CC3)c(C#N)c2c(=O)n1CC#Cc1ccc(Cl)cc1-c1ccnc2c(C(=O)O)csc12 [compound 1165] |
| < 50 | 28.6 | Cc1nc2cnc(N(C)C3CCN(C4CCC4(F)F)CC3)c(C#N)c2c(=O)n1CC#Cc1ccc(Cl)cc1-c1ccnc2c(C(=O)O)csc12 (stereo not drawn) [compound 1166] |
| < 50 | 17.3 | Cc1nc2cnc(N3CCN(CC4(F)CC4)CC3)c(C#N)c2c(=O)n1CC#Cc1ccc(Cl)cc1-c1ccnc2c(C(=O)O)csc12 [compound 1167] |
| < 50 | 13 | CCC(F)(F)CN1CCC(N(C)c2ncc3nc(C)n(COCc4ccc(Cl)cc4-c4ccnc5c(C(=O)O)csc45)c(=O)c3c2C#N)CC1 [compound 1168] |
| < 50 | 15.3 | Cc1nc2cnc(N(C)C3CCN(CC4(F)CC4)CC3)c(C#N)c2c(=O)n1CC#Cc1ccc(Cl)cc1-c1ccnc2c(C(=O)O)csc12 [compound 1169] |
| < 50 | 17.1 | Cc1nc2cnc(N(C)C3CCN(CCOC(F)(F)F)CC3)c(C#N)c2c(=O)n1CC#Cc1ccc(Cl)cc1-c1ccnc2c(C(=O)O)csc12 [compound 1170] |
| < 50 | 13 | Cc1nc2cnc(N(C)C3CCN(C4CC4)CC3)c(C#N)c2c(=O)n1CC#Cc1ccc(Cl)cc1-c1ccnc2c(C(=O)O)csc12 [compound 1171] |
| < 50 | 14.2 | Cc1nc2cnc(N(C)C3CCN([C@H]4C[C@@H](OC(F)F)C4)CC3)c(C#N)c2c(=O)n1CC#Cc1ccc(Cl)cc1-c1ccnc2c(C(=O)O)csc12 [compound 1172] |
| < 50 | 9.32 | Cc1nc2cnc(N(C)C3CCN(CC4(F)CCC4)CC3)c(C#N)c2c(=O)n1CC#Cc1ccc(Cl)cc1-c1ccnc2c(C(=O)O)csc12 [compound 1174] |
| < 50 | 34.3 | CCN(c1ncc2nc(C)n(CC#Cc3ccc(Cl)cc3-c3ccnc4c(C(=O)O)csc34)c(=O)c2c1C#N)C1CCN(CC(F)(F)F)CC1 [compound 1176] |
| < 50 | 34.2 | CCN(c1ncc2nc(C)n(CC#Cc3ccc(Cl)cc3-c3ccnc4c(C(=O)O)csc34)c(=O)c2c1C#N)C1CCN(CC(C)(F)F)CC1 [compound 1177] |
| < 50 | 22.9 | CC(=O)c1csc2c(-c3cc(Cl)ccc3C#CCn3c(C)nc4cc(C(F)(F)F)c(N5CC6(C5)CN(C5CC5)C6)c(C#N)c4c3=O)ccnc12 [compound 1178] |
| < 50 | – | Cc1nc2cnc(N3CCC(N4CCC(F)(F)CC4)CC3)c(C#N)c2c(=O)n1CC#Cc1ccc(Cl)cc1-c1ccnc2c(C(=O)O)csc12 [compound 1180] |
| < 50 | 13.7 | Cc1nc2cnc(N(C)C3CCN(C4CC(F)C4)CC3)c(C#N)c2c(=O)n1CC#Cc1ccc(Cl)cc1-c1ccnc2c(C(=O)O)csc12 (stereo not drawn) [compound 1181] |
| < 50 | 13.6 | Cc1nc2cnc(N(C)C3CCN(C4(C(F)F)COC4)CC3)c(C#N)c2c(=O)n1CC#Cc1ccc(Cl)cc1-c1ccnc2c(C(=O)O)csc12 [compound 1182] |
| < 50 | 23.2 | Cc1nc2cnc(N(C)C3CCN(CC(C)(F)F)CC3)c(C#N)c2c(=O)n1CC#Cc1ccc(Cl)cc1-c1ccnc2c(C(=O)NS(=O)(=O)C3COC3)csc12 [compound 1183] |
| < 50 | 9.32 | CCN(c1ncc2nc(C)n(CC#Cc3ccc(Cl)cc3-c3ccnc4c(C(=O)O)csc34)c(=O)c2c1C#N)C1CCN(C2CC(F)(F)C2)CC1 [compound 1184] |
| < 50 | 17.6 | Cc1nc2cnc(N(C)C3CCN(CC4(F)COC4)CC3)c(C#N)c2c(=O)n1CC#Cc1ccc(Cl)cc1-c1ccnc2c(C(=O)O)csc12 [compound 1185] |
